Among the data in ChEMBL document CHEMBL1159205, “Fomitellic acids, triterpenoid inhibitors of eukaryotic DNA polymerases from a basidiomycete, Fomitella fraxinea” (J Nat Prod, 1998) are MIC values, retold here.

Each structure is given as a SMILES string. Converted amounts (≈) assume the structure as drawn.

The first assay is filed under the species Bos taurus. Nature of the assay: Inhibition of calf DNA polymerase alpha assessed as incorporation of [3H]dTTP.
In the case of `CC(C)=CCC[C@@H](C)[C@H]1CC[C@@]2(C)C3=C(CC[C@]12C)[C@]1(C)[C@@H](CC3=O)[C@@](C)(C(=O)O)[C@@H](O)C[C@H]1O`, the MIC turned out to be 30 µM (≈ 14.6 µg/mL).
Same read-out and setting: with `CC(C)=CCC[C@@H](C)[C@H]1CC[C@@]2(C)C3=C(CC[C@]12C)[C@]1(C)[C@@H](CC3=O)[C@@](C)(C(=O)O)[C@H](O)C[C@H]1O` the figure was 35 µM (≈ 17 µg/mL).
The same measure, in the same setting: with `CO[C@@H]1C[C@]2(C)[C@@H]([C@H](C)CCC=C(C)C)CC[C@@]2(C)C2=C1[C@]1(C)[C@@H](CC2=O)[C@@](C)(C(=O)O)[C@@H](O)C[C@H]1O` the figure was 75 µM (≈ 38.8 µg/mL).
Same read-out and setting: with `CC(C)=CCC[C@@H](C)[C@H]1CC[C@@]2(C)C3=C([C@H](O)C[C@]12C)[C@]1(C)[C@@H](CC3=O)[C@@](C)(C(=O)O)[C@@H](O)C[C@H]1O` the figure was 75 µM (≈ 37.7 µg/mL).

In the next assay the target is DNA polymerase beta (Rattus norvegicus) (UniProt P06766). Nature of the assay: Inhibition of rat DNA polymerase beta assessed as incorporation of [3H]dTTP.
For the compound `CC(C)=CCC[C@@H](C)[C@H]1CC[C@@]2(C)C3=C(CC[C@]12C)[C@]1(C)[C@@H](CC3=O)[C@@](C)(C(=O)O)[C@@H](O)C[C@H]1O`, the MIC stood at 90 µM (≈ 43.8 µg/mL).
The same measure, in the same setting: then `CC(C)=CCC[C@@H](C)[C@H]1CC[C@@]2(C)C3=C(CC[C@]12C)[C@]1(C)[C@@H](CC3=O)[C@@](C)(C(=O)O)[C@H](O)C[C@H]1O`, with 95 µM (≈ 46.2 µg/mL).
Same read-out and setting: with `CO[C@@H]1C[C@]2(C)[C@@H]([C@H](C)CCC=C(C)C)CC[C@@]2(C)C2=C1[C@]1(C)[C@@H](CC2=O)[C@@](C)(C(=O)O)[C@@H](O)C[C@H]1O` the figure was 130 µM (≈ 67.2 µg/mL).
The same measure, in the same setting: then `CC(C)=CCC[C@@H](C)[C@H]1CC[C@@]2(C)C3=C([C@H](O)C[C@]12C)[C@]1(C)[C@@H](CC3=O)[C@@](C)(C(=O)O)[C@@H](O)C[C@H]1O`, with 125 µM (≈ 62.8 µg/mL).
